The results in this text go back to US4489091A, “Antilipemic and anti-inflammatory compositions containing sulfonate derivatives” (Taiho Pharmaceutical Company Limited, priority 1980, dated 1984).

Like-named read-outs stand apart in the source and are kept apart here.

One series relates to triglycerides. The series can be described thus: Antilipemic effect: percent triglycerides inhibition in plasma of rats given an olive oil-cholesterol mixture. To be noted: for inhibition in vivo at 200 mg/kg: oral 200 mg/kg (asterisked values), read-out: Anti-lipemic effect, TG (percent triglycerides inhibition), asterisked; for inhibition in vivo at 200 mg/kg / inhibition in vivo at 100 mg/kg: plasma 2 hours after dosing, Wistar rat; for inhibition in vivo at 100 mg/kg: oral 100 mg/kg, read-out: Anti-lipemic effect, TG (percent triglycerides inhibition). Format: in vivo, male Wistar rats. On the procedure: The above compounds of this invention are tested by the following methods for antilipemic effect and acute toxicity. In the column of antilipemic effect in the table, the asterisked values indicate the effect achieved by orally giving 200 mg/kg of the compounds concerned, and the unmarked values, the effect attained by orally giving 100 mg/kg. In the same column, "TG" stands for percent triglycerides inhibition and "CS" percent cholesterol inhibition.
Seven-week-old male Wistar rats weighing 200 to 220 g are used, 5 rats in each group.
Each compound of the invention (100 mg or 200 mg) is dissolved in 10 ml of an olive oil-cholesterol mixture (containing 15% of cholesterol). The mixture containing the compound is orally given to the rat with a probe at a dose of 10 ml/kg. Two or 8 hours thereafter, 6 ml of whole blood is withdrawn from the descending aorta of the rat under ether anesthesia with a syringe containing heparin. The blood is centrifuged at 5° C. and 3000 r.p.m. to obtain the plasma. The plasma collected after the lapse of 2 hours is used for determining the triglycerides content, and the plasma obtained 8 hours later for determining the total cholesterol content, using a triglycerides measuring kit (trade mark "Triglycerides-B Test Wako," product of Wako Junyaku Co., Ltd., Japan) and a total cholesterol measuring kit (trade mark "Cholesterol Test Wako," product of the same), respectively. The olive oil-cholesterol mixture containing no compound is similarly given to a control group, while no treatment is conducted for a normal group. The triglycerides and total cholesterol contents in the plasma are also determined for these groups in the same manner as is the case with the test groups.
The present hyperlipidemia inhibition achieved by the present compound is given by [formula] in which A is the triglycerides (cholesterol) content of the control group, B is the triglycerides (cholesterol) content of the normal group, and C is the triglycerides (cholesterol) content of the group to which the present compound is given.

Another series can be described thus: Acute toxicity. To be noted: rat, in vivo. From the text:
Six-week-old male Wistar rats weighing 180 to 200 g are used, 5 rats in each group. Each compound of the invention is suspended in a 30% aqueous solution of polyethylene glycol 6000 and orally given to the rat at the dosage shown in Table 2. The animals are checked for poisoning, body weight and survival to determine the LD50 value.

In the case of `CCCC(=O)COS(=O)(=O)CCCOCC` [Compound 2], the inhibition in vivo at 200 mg/kg in the series with triglycerides is 65%.

As to `CCCC(=O)COS(=O)(=O)C1CCCCC1` [Compound 3], the inhibition in vivo at 200 mg/kg in the series on triglycerides was determined as 51%.

Regarding `CC=CC(=O)COS(=O)(=O)c1ccccc1` [Compound 13], in the series on triglycerides, the inhibition in vivo at 100 mg/kg was found to be 72%.

With `CCCCCCCCCC(=O)COS(=O)(=O)c1ccc(C)cc1` [Compound 22], the inhibition in vivo at 200 mg/kg with triglycerides turned out to be 62%. The 50% lethal dose (LD50) – broadly, the dose expected to kill half of the subjects tested – in “Acute toxicity” (po) was more than 3000 mg/kg.

`CCCCCCCCCCC(=O)COS(=O)(=O)c1ccc(C)cc1` [Compound 23]: in the series on triglycerides, the inhibition in vivo at 200 mg/kg came out at 64%. This compound also displayed an LD50 in the series “Acute toxicity” (po) of more than 3000 mg/kg.

Take `CCCCCCCCCCCCC(=O)COS(=O)(=O)c1ccc(C)cc1` [Compound 24]: in the series on triglycerides, the inhibition in vivo at 200 mg/kg is 63%. For the same compound, the LD50 in “Acute toxicity” (po) is more than 3000 mg/kg.

Regarding `CCCCCCCCCCCCCCC(=O)COS(=O)(=O)c1ccc(C)cc1` [Compound 25], in the series with triglycerides, the inhibition in vivo at 200 mg/kg is 62%. The compound also displayed an LD50 in “Acute toxicity” (po) of more than 3000 mg/kg.

Turning to `Cc1ccccc1S(=O)(=O)OCC(=O)CCCCCCC(C)C` [Compound 33], the inhibition in vivo at 200 mg/kg in the series on triglycerides is 67%. The compound further displayed an LD50 in “Acute toxicity” (po) of more than 3000 mg/kg.

Consider `CCCCCCCCCCCC(=O)COS(=O)(=O)c1ccc(OC)cc1` [Compound 39], for which, in the series with triglycerides, the inhibition in vivo at 200 mg/kg worked out at 58%. This compound also registered a median lethal dose (LD50) in “Acute toxicity” (po) of more than 4000 mg/kg.

Consider `C=CCCCCCCCCC(=O)COS(=O)(=O)c1ccc(OC)cc1` [Compound 42], for which, in the series with triglycerides, the inhibition in vivo at 200 mg/kg came to 57%. Also, the 50% lethal dose (LD50) in the series “Acute toxicity” (po) is more than 4000 mg/kg.

Regarding `CCCCOc1ccc(S(=O)(=O)OCC(=O)CCCC)cc1` [Compound 54], the inhibition in vivo at 100 mg/kg with triglycerides was 48%. In “Acute toxicity” (po), this compound came in with an LD50 of more than 2000 mg/kg.

With `CCCCCCCCCC(=O)COS(=O)(=O)c1ccc(OCCCC)cc1` [Compound 57], in the series on triglycerides, the inhibition in vivo at 200 mg/kg was determined as 52%. Also, the LD50 in “Acute toxicity” (po) is more than 4000 mg/kg.

For the compound `CCCCOc1ccc(S(=O)(=O)OCC(=O)CCC(C)C)cc1` [Compound 58], in the series with triglycerides, the inhibition in vivo at 200 mg/kg stood at 61%. In addition, in the series “Acute toxicity” (po), the 50% lethal dose (LD50) was more than 4000 mg/kg.

`CCCC(=O)COS(=O)(=O)c1ccc(O)cc1` [Compound 59]: the inhibition in vivo at 100 mg/kg with triglycerides was 70%. The LD50 in “Acute toxicity” (po) was more than 3000 mg/kg.

With `CCCCCC(=O)COS(=O)(=O)c1ccc(O)cc1` [Compound 60], the inhibition in vivo at 100 mg/kg in the series with triglycerides was 83%. This compound had an LD50 in “Acute toxicity” (po) of more than 3000 mg/kg.

As to `CCCCCCCCC(=O)COS(=O)(=O)c1ccc(O)cc1` [Compound 61], the inhibition in vivo at 100 mg/kg in the series on triglycerides stood at 67%. Moreover, the median lethal dose (LD50) in “Acute toxicity” (po) was more than 3000 mg/kg.

`CCC(C)C(=O)COS(=O)(=O)c1ccc(O)cc1` (stereo not drawn) [Compound 63]: the inhibition in vivo at 100 mg/kg with triglycerides came to 76%. The compound further gave an LD50 in the series “Acute toxicity” (po) of more than 2000 mg/kg.

On to `CCCCCCC(=O)COS(=O)(=O)c1ccc(Cl)cc1` [Compound 67], for which the inhibition in vivo at 100 mg/kg in the series with triglycerides came out at 80%. Besides, the 50% lethal dose (LD50) in “Acute toxicity” (po) was more than 2000 mg/kg.

In the case of `CCCCCCCCCC(=O)COS(=O)(=O)c1ccc(Cl)cc1` [Compound 68, 2-oxo-undecyl-p-chlorobenzene sulfonate], in the series with triglycerides, the inhibition in vivo at 100 mg/kg was determined as 62%. Moreover, in the series “Acute toxicity” (oral, six-week-old male Wistar rats, suspended in 30% aqueous polyethylene glycol 6000, read-out: LD50), the LD50 was more than 3000 mg/kg.

On to `CCCCCCCCCCC(=O)COS(=O)(=O)c1ccc(Cl)cc1` [Compound 69], for which the inhibition in vivo at 200 mg/kg in the series with triglycerides amounted to 77%. This compound also yielded a 50% lethal dose (LD50) in the series “Acute toxicity” (po) of more than 3000 mg/kg.

Regarding `CCCCCCCCCC(=O)COS(=O)(=O)c1c(C)cc(C)cc1C` [Compound 79], the inhibition in vivo at 200 mg/kg in the series on triglycerides amounted to 61%. This compound displayed an LD50 in “Acute toxicity” (po) of more than 4000 mg/kg.

Consider `CCCCCCCCCCCC(=O)COS(=O)(=O)c1c(C)cc(C)cc1C` [Compound 81], for which the inhibition in vivo at 200 mg/kg with triglycerides came to 60%. The LD50 in the series “Acute toxicity” (po) was more than 4000 mg/kg.

Take `CCCCC=CCC(=O)COS(=O)(=O)c1c(C)cc(C)cc1C` [Compound 87]: the inhibition in vivo at 200 mg/kg in the series on triglycerides was determined as 57%.

With `CCCC(=O)COS(=O)(=O)c1ccc([N+](=O)[O-])cc1` [Compound 106], in the series with triglycerides, the inhibition in vivo at 200 mg/kg amounted to 60%.

For `CCCC(=O)COS(=O)(=O)c1ccc(O)c(OC)c1` [Compound 110], the inhibition in vivo at 100 mg/kg in the series with triglycerides is 70%.

On to `CCOc1ccc(S(=O)(=O)OCC(=O)CCC2CCCCC2)cc1` [Compound 174], for which the “TG (percent triglycerides inhibition), Table 3” value in the series on triglycerides (Table 3, dose not given) turned out to be 100%.
